# Measurements: patent US20140057895A1, “INDAZOLE- AND PYRROLOPYRIDINE-DERIVATIVE AND PHARMACEUTICAL USE THEREOF” (priority 2011, published 2014)
# Where a name gives a salt, the structure may show the parent alone.
# Molecular target: T1, 5-HT4 receptor (Cavia porcellus, UniProt O70528)
# T1 construct: striatum was isolated which was cryopreserved at −80° C. until use; from tissue; host or cells: guinea pig (Slc-Hartley) striatum membranes
# Experiment: Test Example 3: Guinea pig 5-HT4 receptor binding assay, [3H]-GR113808, striatum membranes (Table 98)
# Conditions: Guinea pig 5-HT4 receptor binding assay, [3H]-GR113808, striatum membranes; mean value of each group; read-out: IC50
# Description: The guinea pig 5-HT4 receptor binding assay and preparations of receptor membrane preparations herein were carried out according to a method of Grossman et al. [see, British J. Pharmacol., (1993) 109, 618].
# Slc-Hartley guinea pigs (body weight 300 g to 400 g) were decapitated to remove brain rapidly, and striatum was isolated which was cryopreserved at −80° C. until use. To the obtained tissues were added fifteen fold of Hepes buffer (50 mM, pH 7.4, 4° C.), and the mixture was homogenized by Teflon (trademark) homogenizer and centrifuged at 48,000×g (4° C.) for 15 minutes. To the resulting precipitate was added Hepes buffer (1 ml) to 30 mg by wet weight of tissues, and the mixture was suspended to give receptor membrane preparations.
# To an assay tube were added 0.1 nM [^3H]-GR113808 {chemical name: [1-[2-(methylsulfonylamino) ethyl]-4-piperidinyl]methyl 1-methylindole-3-carboxylate}, receptor membrane preparations, and Hepes buffer (50 mM, pH 7.4, 4° C., 1 ml) containing test compounds or 30 μM serotonin; and the mixture was incubated at 37° C. for 30 minutes. On quenching the reaction, the mixture was rapidly filtered on whatman GF/B filter, which was presoaked in 0.1% polyethyleneimine for 1 hour, by using Brandel cell Harvester, and washed with ice-cooled 50 mM Tris-HCl (pH 7.7, 4 ml) three times. To the filter after filtration was added a liquid scintillator (Ecoscint), and then a radioactivity was determined by a liquid scintillation counter.
# 50% Inhibition concentrations (IC50) were determined from inhibition rates of test compounds to specific bindings which were obtained by subtracting nonspecific bindings from total binding amounts of [^3H]-GR113808. […]
# T1 sequence (O70528 whole entry): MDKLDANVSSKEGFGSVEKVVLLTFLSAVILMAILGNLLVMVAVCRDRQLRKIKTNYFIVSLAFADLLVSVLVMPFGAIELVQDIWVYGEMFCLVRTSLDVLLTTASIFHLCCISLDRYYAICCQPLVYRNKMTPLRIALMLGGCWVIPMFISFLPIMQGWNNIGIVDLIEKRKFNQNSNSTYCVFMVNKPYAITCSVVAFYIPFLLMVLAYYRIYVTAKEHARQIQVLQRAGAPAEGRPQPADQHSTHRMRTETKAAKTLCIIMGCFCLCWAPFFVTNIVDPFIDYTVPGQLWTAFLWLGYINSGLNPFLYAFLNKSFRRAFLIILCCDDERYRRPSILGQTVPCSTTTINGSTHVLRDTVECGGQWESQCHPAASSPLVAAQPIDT
row,SMILES,IC50 [nM]
1,"CC(=O)N1CCC(N2CCC(c3nc(-n4nc(C(C)C)c5cc(C)ccc54)no3)CC2)CC1 [Example 410, 1-(4-{3-[5-methyl-3-(propan-2-yl)-1H-indazol-1-yl]-1,2,4-oxadiazol-5-yl}-1,4′-bipiperidin-1′-yl)ethanone]",323
2,"Cc1ccc2c(C(C)C)nn(-c3noc(C4CCN(CC5CCOCC5)CC4)n3)c2c1 [Example 436, 6-methyl-3-(propan-2-yl)-1-{5-[1-(tetrahydro-2H-pyran-4-ylmethyl)piperidin-4-yl]-1,2,4-oxadiazol-3-yl}-1H-indazole trifluoroacetate]",179
3,"CC(=O)N1CCC(N2CCC(c3nc(-n4nc(C(C)C)c5ccc(C)cc54)no3)CC2)CC1 [Example 462, 1-(4-{3-[6-methyl-3-(propan-2-yl)-1H-indazol-1-yl]-1,2,4-oxadiazol-5-yl}-1,4′-bipiperidin-1′-yl}ethanone trifluoroacetate]",109
4,"CCc1nn(-c2noc(C3CCN(C4CCOCC4)CC3)n2)c2cc(C)ccc12 [Example 437, 3-ethyl-6-methyl-1-{5-[1-(tetrahydro-2H-pyran-4-yl)piperidin-4-yl)-1,2,4-oxadiazol-3-yl}-1H-indazole trifluoroacetate]",113
5,"CC(=O)N1CCC(N2CCC(c3nc(-n4nc(C(C)C)c5ccc(Cl)cc54)no3)CC2)CC1 [Example 412, 1-(4-{3-[6-chloro-3-(propan-2-yl)-1H-indazol-1-yl]-1,2,4-oxadiazol-5-yl}-1,4′-bipiperidin-1′-yl)ethanone]",140
6,"CC(C)(C)c1nn(-c2noc(C3CCN(C4CCN(C(=O)CO)CC4)CC3)n2)c2ccccc12 [Example 522, 1-{4-[3-(3-tert-butyl-1H-indazol-1-yl)-1,2,4-oxadiazol-5-yl]-1,4′-bipiperidin-1′-yl}-2-hydroxyethanone]",222
7,"CC(C)c1nn(-c2noc(C3CCN(C4CCC4)CC3)n2)c2cc(Cl)ccc12 [Example 431, 6-chloro-1-[5-(1-cyclobutylpiperidin-4-yl)-1,2,4-oxadiazol-3-yl]-3-(propan-2-yl)-1H-indazole]",130
8,"CCCCN1CCC(c2ncc(-n3nc(C(C)C)c4cccc(F)c43)s2)CC1 [Example 564, 1-[2-(1-butylpiperidin-4-yl)-1,3-thiazol-5-yl]-7-fluoro-3-(propan-2-yl)-1H-indazole]",653

# Now those with a lower IC50, led by results:
row,IC50 [nM],SMILES
1,94.6,"CC(=O)N1CCC(CN2CCC(c3nc(-n4nc(C(C)C)c5ccc(C)cc54)no3)CC2)CC1 [Example 479, 1-{4-[(4-{3-[6-methyl-3-(propan-2-yl)-1H-indazol-1-yl]-1,2,4-oxadiazol-5-yl}piperidin-1-yl)methyl]piperidin-1-yl}ethanone trifluoroacetate]"
2,101,"CC(=O)N1CCC(N2CCC(c3nc(-n4nc(C(C)C)c5c(Cl)cccc54)no3)CC2)CC1 [Example 407, 1-(4-{3-[4-chloro-3-(propan-2-yl)-1H-indazol-1-yl]-1,2,4-oxadiazol-5-yl}-1,4′-bipiperidin-1′-yl)ethanone]"
3,20.8,"CCc1nn(-c2noc(C3CCN(C4CCC4)CC3)n2)c2cc(C)ccc12 [Example 434, 1-[5-(1-cyclobutylpiperidin-4-yl)-1,2,4-oxadiazol-3-yl]-3-ethyl-6-methyl-1H-indazole trifluoroacetate]"
4,< 20,"COCC(=O)N1CCC(N2CCC(c3nc(-n4nc(C(C)C)c5ccc(F)c(F)c54)no3)CC2)CC1 [Example 465, 1-(4-{3-[6,7-difluoro-3-(propan-2-yl)-1H-indazol-1-yl]-1,2,4-oxadiazol-5-yl}-1,4′-bipiperidin-1′-yl)-2-methoxyethanone trifluoroacetate]"
5,< 20,"CC(C)c1nn(-c2noc(C3CCN(C4CCN(S(C)(=O)=O)CC4)CC3)n2)c2c(F)cccc12 [Example 466, 4-{3-[7-fluoro-3-(propan-2-yl)-1H-indazol-1-yl]-1,2,4-oxadiazol-5-yl}-1′-(methylsulfonyl)-1,4′-bipiperidine trifluoroacetate]"
